In paper PMC10141580, “Cyclic Dichalcogenides Extend the Reach of Bioreductive Prodrugs to Harness Thiol/Disulfide Oxidoreductases: Applications to seco-Duocarmycins Targeting the Thioredoxin System” (ACS Central Science, 2023):
Like-named read-outs stand apart in the source and are kept apart here.

Columns and labels:
[1] = Cell-free HPLC reduction assay (GSH or TCEP challenge); settings: 5 mM GSH (50 equiv), 24 h
Source text: These performance features had not been tested with naphthols, so we used HPLC to test them and show their reduction-based activation sequence (Figure 2c and Figures S4–S6).
In brief, treatment with the quantitative reductant TCEP triggered a reaction cascade matching the activation sequence we expected (Figure 2c): dichalcogenides are reduced to dichalcogenols that cyclize, giving the naphthol cargos (plus thiol trigger byproduct) that evolve to the activated cyclopropanes (Figure 5).
The mobile phase consists of eluent A: water (analytical
grade, 0.1% formic acid) and eluent B: MeCN (analytical grade, 0.1% formic acid).
using a gradient of 10% B t o 90% B over 10 min.
Reduction assay using TCEP and GSH
tris(2-carboxyethyl)phospine) (TCEP, 5 mM in TE-bu f f e r ) , or reduced glut at hione (GSH, 50 mM in TE-buf f er) or
else blank TE-buffer. Final concentrations: Prodrug (0.1 mM) , TCEP ( 0. 5 mM) , G SH ( 5 mM). The blank sample
was measured after 10 min (“pure”) and 24 h (“O H-“) to control for basic hydrolysis. The GSH sample was
measured after 24 h to control for monothiol-based reductive release. The TCEP sample was measured at several […]
extracted for each of the intermediate species and final r elease products. Peak areas were calculated relative to
the sum of all peak areas at 320 nm to quantify individual species at each timepoints. […]

[2] = system: A549 cells; assay: Resazurin cytotoxicity assay, A549, 72 h; settings: read-out: IC50(nM): A549
Procedure: (§1) We used A549 lung cancer and HeLa cervical cancer cell lines for initial screening of the prodrugs.
Fi gure S9: Cell ular resazurin-based cytotoxi ci ty as s a y.
Dose -response curves were calculated from at least 27 incremental single concentrations over a range
of at least three log units. Individual experiments with annotated experiment numbers are shown for each prodrug

[3] = system: HeLa-HRE cells; assay: Resazurin cytotoxicity assay, HeLa-HRE, 48 h; settings: for IC50(HeLa)/IC50(A549): ratio HeLa vs A549; for IC50: read-out: IC50(nM): HeLa, HeLa, 48 h
Procedure: as §1
HeLa-HRE cells were treated with prodrugs of the
Dose -response curves were calculated from at least 27 incremental single concentrations over a
range of at least three log units.

[4] = system: NCI-60 standardized human tumor cell line panel; assay: cells; format: cell-based; settings: AZI sheet, read-out: GI50
[5] = system: mouse; assay: Tolerability for repeated dose administration in vivo (summary); settings: repeated dose administration
[6] = system: Balb/c mice; assay: Moderate repeated dosing tolerability study; format: in vivo
Procedure: Next, a moderate repeated dosing study in Balb/c mice (3 animals per group) tested the importance of solubilizing the prodrugs.
Methods for in vivo animal studies
All in vivo studies were conducted as contract research together with React ionBiology Eur ope G mbH (Freiburg,
Germany), EPO – Experimental Pharmacology & Oncology GmbH (Berlin, Germany); Bient a/ Enam ine Lt d. (Kyiv,
Ukraine) and Leit at – Managing Technologies (Barcelona, Spain), adhering to the respective animal welfare
(§2) Mice were kept in individually ventilated cages at constant temperature (22±2 °C, air-conditioned) and humidity (45
(§3) – 65%), under optimum hygienic conditions with 10 – 15 air changes per hour. A cycle of 12 h artificial fluorescent
(§4) light ning and 12 h darkness was applied , and animal behavior was monitored daily throughout the studies. The
(§5) animals received food and water ad libit um.
To evaluate toxicity of selected compounds, dose level selection studies within dose range from 0.1 mg/kg to
10 mg/kg were performed by intravenous administration into Balb /c mice. Each dose for each tested compound
was administered in one mouse.
changes and clinical signs of gross toxicity three tim es per week for 21 consecutive days of post-dosing period.
After the first week of observation without adverse events, two doses for each test compound were selected as
tolerated. These two doses were tested in two additional mice for confirmation of toler ability. Additional animals
consecutive days of post-dosing period. Toxicity of repeated administrations was tested wit h t hr ee repeat ed pr e-
selected doses at a dosing interval of 7 days. Mortality, body weight changes, and clinical signs of gross toxicity
were monitored after each drug administration and three times per week for 21 consecutive days after the first
compound administration. Bleed ing with subsequent hematological tests, clinical chemistry parameters analysis
(ALT, AST, ALP, LDH, creatine kinase, creatinine, urea, cholesterol, and triglycerides), and necropsy with
macroscopic inspection were performed on the terminal day of the repeated dosing-regime.
To test tolerability of selected compounds in vivo, female BALB/c mice were randomized by weight into seven
groups of t hree animals.

[7] = In vivo plasma pharmacokinetics; settings: Balb/c mice, i.v. 5 mg/kg
Procedure: We first examined the in vivo pharmacokinetics of representative compound SS60-CBI-AZI in Balb/c mice after i.v. administration at 5 mg/kg (3 animals per time point, 4 time points from 5 to 90 min post injection).
as §2, §3, §4, §5
Pharm acokinetics o f SS60-CBI-AZI
Following single dose intravenous administration, levels of SS60-CBI-AZI in blood plasm a over t im e wer e
det ermined by HPLC-MS/MS. Treatm ent gr oups wer e three Balb/c mice (randomly assigned ) per t ime point (t otal:
Blood collection was performed from the orbital sinus in
microtainers containing K 2EDTA. All samples were immediately processed, flash -frozen and stored at -70 °C unt il
400 ng/mL in et hanol). After mixing by pipetting and centrifuging for 4 min at 6000 rpm, 2 μL of each supernatant
was injected into LC-MS/MS (Shimadzu LC: 2 isocratic pumps LC-10ADvp, autosampler SIL-20AC, sub-controller
FCV-14AH, degasser DGU-14 A; AB Sciex MS: API 3000 ( tr iple-quadrupole), ESI). The data acquisition and system […]

SMILES: CN1CCN(C(=O)Oc2cc3c(c4ccccc24)C(CCl)CN3C(=O)c2cc3cc(OCCCN4CCC4)ccc3[nH]2)C2CSSCC21 (mixture of isomers) [Me-SS66T-CBI-AZI]
- release/reduction on GSH challenge [1]: partial reduction
- IC50 [2]: 51 nM
- IC50(HeLa)/IC50(A549) [3]: 1.0
- IC50 [3]: 49 nM
- GI50 ([4]; 786-0): 13 nM
- GI50 ([4]; A498): 15 nM
- GI50 ([4]; A549/ATCC): 1.8 nM
- GI50 ([4]; ACHN): 2.4 nM
- GI50 ([4]; BT-549): 21 nM
- GI50 ([4]; CAKI-1): 2.8 nM
- GI50 ([4]; CCRF-CEM): 7.4 nM
- GI50 ([4]; COLO 205): 15 nM
- GI50 ([4]; DU-145): 3.9 nM
- GI50 ([4]; EKVX): 12 nM
- GI50 ([4]; HCC-2998): 3.5 nM
- GI50 ([4]; HCT-15): 3.8 nM
- GI50 ([4]; HCT-116): 6.8 nM
- GI50 ([4]; HL-60(TB)): 9.9 nM
- GI50 ([4]; HOP-62): 5.2 nM
- GI50 ([4]; HOP-92): 18 nM
- GI50 ([4]; HT29): 8.3 nM
- GI50 ([4]; IGROV1): 17 nM
- GI50 ([4]; K-562): 4.4 nM
- GI50 ([4]; KM12): 16 nM
- GI50 ([4]; LOX IMVI): 2.2 nM
- GI50 ([4]; M14): 5.6 nM
- GI50 ([4]; MALME-3M): 6.4 nM
- GI50 ([4]; MDA-MB-231): 19.2 nM
- GI50 ([4]; MDA-MB-435): 13 nM
- GI50 ([4]; MDA-MB-468): 2.6 nM
- GI50 ([4]; MOLT-4): 4.5 nM
- GI50 ([4]; NCI-H23): 1.7 nM
- GI50 ([4]; NCI-H226): 3.4 nM
- GI50 ([4]; NCI-H522): 11 nM
- GI50 ([4]; OVCAR-3): 27 nM
- GI50 ([4]; OVCAR-4): 28 nM
- GI50 ([4]; OVCAR-5): 6.9 nM
- GI50 ([4]; OVCAR-8): 3.3 nM
- GI50 ([4]; PC-3): 19.7 nM
- GI50 ([4]; RPMI-8226): 23 nM
- GI50 ([4]; RXF 393): 5.7 nM
- GI50 ([4]; SF-268): 9 nM
- GI50 ([4]; SF-295): 2.2 nM
- GI50 ([4]; SF-539): 5.2 nM
- GI50 ([4]; SK-MEL-2): 19 nM
- GI50 ([4]; SK-MEL-5): 2.3 nM
- GI50 ([4]; SK-MEL-28): 4.8 nM
- GI50 ([4]; SK-OV-3): 15 nM
- GI50 ([4]; SN12C): 10 nM
- GI50 ([4]; SNB-19): 5.8 nM
- GI50 ([4]; SR): 1.7 nM
- GI50 ([4]; SW-620): 2.3 nM
- GI50 ([4]; T-47D): 15 nM
- GI50 ([4]; TK-10): 22 nM
- GI50 ([4]; U251): 1.6 nM
- GI50 ([4]; UACC-62): 2.2 nM
- GI50 ([4]; UACC-257): 15 nM
- GI50 ([4]; UO-31): 3.8 nM

SMILES: CN(C(=O)Oc1cc2c(c3ccccc13)[C@H](CCl)CN2C(=O)c1cc2cc(OCCCN3CCC3)ccc2[nH]1)[C@H]1CCSSC1 [SS60-CBI-AZI]
- IC50 ([2]; Homo sapiens): 120 nM
- IC50 ([3]; Homo sapiens): 96 nM
- IC50(HeLa)/IC50(A549) [3]: 0.8
- remarks [5]: adverse effects
- outcome of repeated dosing at 3 mg/kg ([6]; once weekly): significant loss of body weight
- outcome of repeated dosing at 1 mg/kg ([6]; treated twice a week): tolerated
- released cargo in plasma [7]: no released HO-CBI-AZI, or activated cyclopropane, or adducts, were detected
- half-life ([7]; mouse, plasma, iv, HPLC-MS/MS): ~20 min
